Results reported in PubChem BioAssay (NCI).
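Interpolation was linear, between the two tested concentrations surrounding the appropriate level; five concentrations were tested over 48 hours in 96-well plates. At the GI50, growth is halved. TGI marks complete inhibition of growth.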

Legend:
Assay in all cases: NCI-60 cell line screen, 48 h
MDA-MB-435 = test system: MDA-MB-435
NCI/ADR-RES ovarian = test system: NCI/ADR-RES ovarian
SK-MEL-2 melanoma = test system: SK-MEL-2 melanoma
SK-MEL-5 melanoma = test system: SK-MEL-5 melanoma
SNB-75 CNS = test system: SNB-75 CNS
IGROV1 ovarian = test system: IGROV1 ovarian
M14 melanoma = test system: M14 melanoma
MDA-N = test system: MDA-N
SW-620 colon = test system: SW-620 colon
NCI-H226 lung = test system: NCI-H226 lung

| Structure (SMILES) | GI50 (MDA-MB-435) [µM] | TGI (MDA-MB-435) [µM] | GI50 (NCI/ADR-RES ovarian) [µM] | TGI (NCI/ADR-RES ovarian) [µM] | GI50 (SK-MEL-2 melanoma) [µM] | TGI (SK-MEL-2 melanoma) [µM] | GI50 (SK-MEL-5 melanoma) [µM] | TGI (SK-MEL-5 melanoma) [µM] | GI50 (SNB-75 CNS) [µM] | TGI (SNB-75 CNS) [µM] | TGI (IGROV1 ovarian) [µM] | TGI (M14 melanoma) [µM] | TGI (MDA-N) [µM] | TGI (SW-620 colon) [µM] | TGI (NCI-H226 lung) [µM] | GI50 (IGROV1 ovarian) [µM] | GI50 (SW-620 colon) [µM] |
| --- | --- | --- | --- | --- | --- | --- | --- | --- | --- | --- | --- | --- | --- | --- | --- | --- | --- |
| CCc1ccc(OCc2ccccc2C(=O)Nc2ccc3nc(C)cc(N)c3c2)cc1 | 1.43 | 2.77 | 1.75 | 4.2 | 1.79 | 3.39 | 1.54 | 2.91 | 1.28 | 2.59 |  |  |  |  |  |  |  |
| Clc1sc(Cl)c2c1[C@H](Br)C[C@@H]2Cl |  | 40.8 |  | 44.2 |  | > 100 |  | > 100 |  | > 100 | 44.6 | 54.5 | > 100 | 45.6 |  |  |  |
| O=C(O)Cn1c[n+](NC(=O)Cc2ccccc2)cn1 |  | > 10 |  | > 10 |  |  |  | > 10 |  | > 10 | > 10 | > 10 | > 10 | > 10 |  |  |  |
| Fc1ccc(OCc2ccc3nc(-c4ccccc4)c(Cl)nc3c2)cc1 |  | > 100 |  | > 100 |  | > 100 |  | > 100 |  | 42.8 | 74.3 | > 100 | > 100 | > 100 |  |  |  |
| CCOP(=O)(CC1OC(CO)C(O)C1O)OCC (stereo not drawn) |  | > 100 |  |  |  | > 100 |  | > 100 |  | > 100 | > 100 | > 100 | > 100 | > 100 |  |  |  |
| O=C1CN(c2ccccc2)C(=O)C1C(=O)Nc1ccc(Cl)c(Cl)c1 (stereo not drawn) |  |  |  |  |  |  |  | 13.2 |  | 19.2 | 14.9 | 12.6 |  | 11.9 |  |  |  |
| Cn1c(=O)c2[nH]c(Nc3cccc(Cl)c3)nc2n(C)c1=O |  | > 10 |  |  |  |  |  | > 10 |  | > 10 | > 10 | > 10 | > 10 | > 10 |  |  |  |
| CN1C2CCC1C(CO)C(=O)C2 (stereo not drawn) |  | > 100 |  | > 100 |  | > 100 |  | > 100 |  | > 100 | > 100 |  |  | 43.2 | > 100 |  |  |
| O=C1c2cc3c(cc2-c2c1c1cc(F)c(F)cc1c(=O)n2C[C@H](O)CO)OCO3 | 0.125 | 0.422 | 0.0396 | 0.468 | 0.243 | 0.625 | 0.0307 | 0.116 |  |  | > 100 |  |  | 1.98 |  | 0.182 | 0.0431 |
| COc1cccc(Nc2nc3c([nH]2)c(=O)n(C)c(=O)n3C)c1 |  | > 10 |  |  |  |  |  | > 10 |  | > 10 | > 10 | > 10 | > 10 | > 10 |  |  |  |
| CC(=O)OC1COC(N2c3ccccc3[C@@H]3CCc4c([nH]c5ccccc45)[C@@H]32)C(OC(C)=O)C1OC(C)=O (mixture of isomers) |  | > 100 |  |  |  | > 100 |  | > 100 |  | > 100 | 54 | > 100 | > 100 | > 100 |  |  |  |
| CC12CCC(=O)[C@@]1(C)CCCC2=O (stereo partly drawn) |  |  |  | > 100 |  | > 100 |  |  |  |  | > 100 | > 100 | > 100 | > 100 | > 100 |  |  |
| C=C1C[C@@H]2CC[C@@]34CC5O[C@H]6C(O[C@H]7CC[C@H](CC(=O)O[C@@H]8[C@@H](C)[C@@H]9O[C@@H]%10C[C@]%11(C[C@@H]%12O[C@]%13(C[C@H](C)[C@@H]%14O[C@@H]%15CC(C(COC(C)=O)OC(C)=O)O[C@@H]%15C[C@@H]%14O%13)C[C@H](C)[C@@H]%12O%11)O[C@@H]%10C[C@@H]9O[C@H]8CC8O[C@@H](CC[C@@H]1O2)C[C@@H](C)C8(O)CO)O[C@@H]7[C@@H]6O3)[C@H]5O4 (stereo partly drawn) |  | > 0.879 |  | > 1 |  | > 1 |  | > 1 |  | > 1 | > 1 | > 1 |  | > 1 | > 1 |  |  |
| C[C@@H](CCO)OC1OC(COC(=O)C(C)(C)C)C(OC(=O)C(C)(C)C)C(OC(=O)C(C)(C)C)C1OC(=O)C(C)(C)C (stereo partly drawn) |  | > 100 |  | > 100 |  | > 100 |  | 58.1 |  | > 100 | > 100 | > 100 |  | > 100 | > 100 |  |  |
| CCc1nc2c([nH]1)C(=O)c1ccccc1C2=O |  |  |  |  |  | > 100 |  |  |  | > 100 |  | > 100 |  | > 100 | > 100 |  |  |
| O=c1ccn([C@@H]2C=C(CO)[C@@H](O)[C@H]2O)c(=O)[nH]1 |  |  |  | > 625 |  | > 625 |  | > 625 |  | 431 | > 625 |  |  | > 625 | > 625 |  |  |
| COc1ccc(CCn2ccc(=O)c(O)c2C)cc1OC |  | > 100 |  | 57.9 |  |  |  | 41.8 |  |  |  | 36.7 | > 100 | > 100 |  |  |  |
| O=C(/C=C/CC(O)(c1ccccc1)c1ccccc1)Nc1ccccc1Cl |  |  |  |  |  | > 100 |  | > 100 |  | > 100 |  | > 100 |  | > 100 | > 100 |  |  |
| Oc1ccc(C[C@@H]2CN[C@H](Cc3ccc(O)c(Br)c3)CN2)cc1 |  | > 100 |  | > 100 |  | > 100 |  |  |  | > 100 | > 100 | > 100 |  | > 100 | > 100 |  |  |
